Key:
[1] = tested on: mouse bowel cancer cell line MC38; test: Antitumor effect of Compound 1 and anti-mouse PD-L1 or anti-mouse CTLA-4 antibody in bowel cancer cell transplanted model (Example 3); type: in vivo
Experimental: (§1) Mouse bowel cancer cell line MC38 was obtained from Dr. Yoshihiro Hayakawa (University of Toyama, Toyama, Japan), and cultured in a RPMI1640 (Sigma-Aldrich) medium (culture solution) containing 10% fetal bovine serum (FBS). MC38 was subcultured at a ratio of 1:3 to 1:5 once or twice a week in an incubator with 5% CO2 at 37° C.
(§2) A cell suspension with a concentration of 2×10^6 cells/0.1 mL was transplanted subcutaneously in the vicinity of the right backmost rib bone of a 6-week-old C57BL/6JJcI mouse (CLEA Japan, Inc.).
(§3) The tumor was grown until reaching a tumor volume (TV) of 50 to 300 mm^3 after the transplantation. Degimatic Caliper was used for tumor diameter measurement. The major diameter and the minor diameter of the tumor were measured, and TV was calculated from the following equation.
(§4) By a stratified random allocation method using TV as an index, 6 animals were allocated to each group. The day when grouping (n=6) was performed was defined as Day 0.
(§5) The relative tumor volume (RTV) and the relative tumor volume change ratio (T/C) were calculated from TV.
(§6) An appropriate amount of water for injection described in the Japanese Pharmacopeia was added for adjusting hypromellose concentration to 0.5 w/v %, and the mixture was then stirred with a stirrer to completely dissolve hypromellose, to prepare a 0.5% aqueous hypromellose solution. Compound 1 was ground with an agate mortar, and then suspended to a predetermined concentration with the 0.5% aqueous hypromellose solution, and ultrasonic treatment was performed to obtain a homogeneous suspension. The suspension containing Compound 1 was orally administered once a day over 5 consecutive days at a dose of 10 mg/kg/day or 14 mg/kg/day, followed by cessation of administration for 2 days, and these processes were repeated three times.
The same procedure as described in Example 1 was carried out except that the anti-mouse PD-L1 antibody or the anti-CTLA-4 antibody was used instead of the anti-mouse PD-1 antibody. […]

[2] = Body weight change ratio in MC38 transplanted model (Example 3); type: in vivo, mouse; details: Compound 1 14 mg/kg/day p.o. days 1-5, 8-12, 15-19
Experimental: (§7) An electronic balance for animals was used for body weight measurement. The body weight change ratio on the nth day (BWCn) was calculated from the body weight on the nth day (BWn) in accordance with the following equation.
The same procedure as described in Example 1 was carried out except that the anti-mouse PD-L1 antibody or the anti-CTLA-4 antibody was used instead of the anti-mouse PD-1 antibody.
The anti-mouse PD-L1 antibody (anti-mPD-L1 Ab) was prepared by diluting InVivoMab anti-mouse PD-L1 (B7-H1) (Clone: 10F.9G2, Bio X cell Co.) to a predetermined concentration with Otsuka Normal Saline immediately before administration. On the first day of administration (day 1), the diluted product was intraperitoneally administered using the anti-mouse PD-L1 antibody at a dose of 0.05 mg/body. The anti-mouse CTLA-4 antibody (anti-mCTLA-4 Ab) was prepared by diluting InVivoMab anti-mouse CTLA-4 (CD152) (Clone: 9H10, Bio X cell Co.) to a predetermined concentration with Otsuka Normal Saline immediately before administration. On the first day of administration (day 1), the diluted product was intraperitoneally administered using the anti-mouse CTLA-4 antibody at a dose of 0.05 mg/body.

[3] = Body weight change ratio in MC38 transplanted model (Example 1); type: in vivo, mouse
Experimental: as §7, §6
(§8) The anti-mouse PD-1 antibody (anti-mPD-1 Ab) was prepared by diluting InVivoMab anti-mouse PD-1 (CD279) (Clone: RMP-1-14, Bio X cell Co.) to a predetermined concentration with Otsuka Normal Saline immediately before administration. On the first day of administration (day 1), the diluted product was intraperitoneally administered as the anti-mouse PD-1 antibody at a dose of 0.05 mg/body.

[4] = tested on: tumor infiltrating leucocytes (CD8 positive cells, regulatory T-cells); test: Immunostimulatory action: flow cytometric analysis of tumor infiltrating lymphocytes in MC38 transplanted model (Example 2); type: in vivo, mouse
Experimental: Mouse bowel cancer cell line MC38 was cultured using a RPMI1640 (Waco Pure Chemical Industries, Ltd.) medium containing 10% FBS. MC38 was subcultured at a ratio of 1:5 to 1:10 once or twice a week in an incubator with 5% CO2 at 37° C.
A cell suspension with a concentration of 2×10^6 cells/0.1 mL was transplanted subcutaneously in the vicinity of the right backmost rib bone of a 6-week-old C57BL/6NJCrI mouse (Charles River Laboratories Japan Inc.).
The tumor was grown until reaching a tumor volume (TV) of 110 to 360 mm^3 after the transplantation. Degimatic Caliper was used for tumor diameter measurement. The major diameter and the minor diameter of the tumor were measured, and TV was calculated from the following equation.
By a stratified random allocation method using TV as an index, 5 animals were allocated to each group. The day when grouping (n=5) was performed was defined as Day 1.
Agents prepared by the same method as described in Example 1 were used for administration. Anti-mouse PD-1 antibody (anti-mPD-1 Ab), CD279(PD-1)Monoclonal Antibody (RMP1-14), eBioscience (Thermo Fisher Scientific), was used as an anti-mouse PD-1 antibody, and intraperitoneally administered at a dose of 0.05 mg/body on the first day of administration (Day 1). Compound 1 was orally administered at a dose of 14 mg/kg/day once a day on Days 1-5 and 8-9.
For detecting expression of immunity-related factors, flow cytometric analysis was performed for immunological monitoring. On Day 10, the tumor was sampled, and tumor infiltrating lymphocytes were then prepared using Tumor Dissociation Kit, mouse (Miltenyi Biotec). Thereafter, the antibody was stained using FoxP3/Transcription Factor Staining Buffer Set (thermo Fisher Scientific), and analysis was then performed using Flow Cytometer FACSVerse (BD Bioscience). […]

[5] = tested on: mouse bowel cancer cell line MC38; test: Antitumor effect of Compound 1 and anti-mouse PD-1 antibody in bowel cancer cell transplanted model (Example 1); type: in vivo; details: for RTV Day 22 (mean ± SD): MC38 transplanted mice; for T/C (%): Day 22
Experimental: as §1, §2, §3, §4, §5
RTV and T/C were calculated from the following equation.
as §6, §8

[6] = Compound 1 10 mg/kg/day p.o. days 1-5, 8-12, 15-19
[7] = Compound 1 14 mg/kg/day p.o. days 1-5, 8-12, 15-19
[8] = Day 10, Compound 1 14 mg/kg/day p.o. Days 1-5 and 8-9, Dunnett test

For `CCc1cc(C(N)=O)ccc1-n1nc(C(C)C)c2c(-n3cnc(-c4cnn(C)c4)c3)ccnc21` [Compound 1, 3-ethyl-4-{3-isopropyl-4-(4-(1-methyl-1H-pyrazol-4-yl)-1H-imidazol-1-yl)-1H-pyrazolo[3,4-b]pyridin-1-yl}benzamide], which “RTV on Day 22 as compared to the control group” value ([1]; Aspin-Welch's t-test, Example 3) is on record?
Its value is “significantly lower RTV”.

And the “RTV Day 22 (mean ± SE)” value ([1]; Compound 1 14 mg/kg/day p.o. days 1-5, 8-12, 15-19, MC38 transplanted mice)?
The value was 8.32 ± 0.51.

And the “T/C (%)” value ([1]; Day 22, Compound 1 14 mg/kg/day p.o. days 1-5, 8-12, 15-19)?
The value was 49.7%.

What about the “BWC(%) Day 22 Mean” value [2] of the same molecule?
Its value is 6.63%.

And the “BWC(%) Day 22 Mean” value [3, 6]?
Its value is 13.5%.

What about the “BWC(%) Day 22 Mean” value [3, 7] of the same molecule?
The value was 12.8%.

What about the “ratio of CD8 positive cells in leucocytes (CD45 positive cells) as compared to the control group” value [4, 8] of the same molecule?
The value was “significantly higher”.

What about the “ratio of regulatory T-cells in T-cells as compared to the control group” value [4, 8] of the same molecule?
The value was “significantly lower”.

And the immunostimulatory activity ([4]; conclusion from Example 2)?
Its immunostimulatory activity is “shows immunostimulatory activity”.

And the “RTV on Day 22 as compared to the control group” value ([5]; Aspin-Welch's t-test, Example 1)?
Its value is “significantly lower RTV”.

What about the “RTV Day 22 (mean ± SD)” value [5, 6] of the same molecule?
The value was 7.93 ± 1.29.

What about the “RTV Day 22 (mean ± SD)” value [5, 7] of the same molecule?
Its value is 5.59 ± 0.92.

What about the “T/C (%)” value [5, 6] of the same molecule?
The value was 41.7%.

And the “T/C (%)” value [5, 7]?
The value was 29.4%.

From patent publication US20250170108A1, “CHEMOTHERAPY FOR CANCER USING AZABICYCLO COMPOUND” (TAIHO PHARMACEUTICAL CO., LTD., priority 2017, published 2025)
